Entries after “also recorded” stand apart in the source; their conditions may differ. Like-named read-outs stand apart in the source and are kept apart here. Values belong to the molecule of their own block, whether it stands above or below them. Bridges are numbered along the chain shown (N, C = ends). Where no end group is shown, it is not given here. [ ]: non-standard residue; d: D form. S5 = C=CCCC[C@](C)(N)C(=O)O
Columns and labels:
A1 = experiment: Apparent Kd by E. coli surface display and flow cytometry, A1; type: binding; details: for Kd: Table 3, apparent Kd, unstapled 14-mer displayed on E. coli (eCPX); for affinity improvement toward A1: relative to wild-type Bim 14-mer
Method: (§1) All binding assays were performed using MC1061 strain. Briefly, a 5 mL culture of a library sample or individual variant was grown to OD600˜0.6, and induced with arabinose (0.2%) at RT for 2.5 hours. Cells were pelleted (1 mL culture, 6000 rpm, 5 min) and resuspended in 1 mL PBS. A portion of the cell suspension (50 μL) was mixed with the desired concentration of pro-survival protein to a total volume of 500 μL. The mixture was allowed to rotate at room temperature for 1 hour for equilibrium binding. The cells were pelleted again (6000 rpm, 20 min), resuspended with 100 μL of 50 nM streptavidin-phycoerythrin (SAPE), and incubated on ice in the dark for 30 min. After a final centrifugation, the cell pellets were stored on ice and resuspended in 2 mL of PBS for flow cytometry measurements. A Partec CyFlow ML Flow Cytometer equipped with a 488 nm laser was used to analyze the cells. A FACSVantage SE cell sorter was used for cell sorting in single cell mode.
(§2) A two parameter model was used to extract apparent binding affinity (Kd) from flow cytometry binding experiments.

Bcl-xL = target: T1, Bcl-xL (Homo sapiens, UniProt Q07817); experiment: Apparent Kd by E. coli surface display and flow cytometry, Bcl-xL; type: binding; details: for binding to Bcl-xL (in words): compared with wild-type peptide; for increase in apparent affinity toward Bcl-xL: relative to wild-type Bim 14-mer
T1 construct: made in house; host or cells: E. coli BL21
Method: as §1, §2

[1] = tested on: HeLa, PC3, MCF7 and MDA231 cell lines; experiment: MTT cytotoxicity assay of stapled peptides, all four cancer cell lines; type: cell-based, human; details: for cytotoxicity against the four cancer cell lines (in words): stapled pseudo-wild-type peptide
Method: (§3) HeLa, PC3, MCF7 and MDA231 cell lines were used to determine IC50 of each stapled peptide. All cells were cultured at 37° C. supplemented with 5% CO2. HeLa cells and PC3 cells were maintained in DMEM and RPMI 1640 media, respectively, supplemented with 10% FBS, 50 units/mL penicillin, and 50 μg/mL streptomycin. MCF7 cells were maintained in DME/F12 media with 2% FBS, 10 μg/ml insulin, and 50 μg/ml gentamicin. MDA-MB-231 cells were maintained in DME/F12 media supplemented with 10% FBS, 10 μg/ml insulin, and 50 μg/ml gentamicin. The cytotoxicity of stapled peptides was determined using an MTT (3-(4,5-Dimethylthiazol-2-yl)-2,5-diphenyltetrazolium bromide assay (Sigma). Cells were plated at a density of 1.5×10^4 cells per well in a 96-well plate. After 24 hours, the medium was replaced with serum-free medium containing stapled peptides. Serum was added after 4 hours, and cells were incubated for an additional 44 hours. After this incubation, 0.5 mg/ml of MTT was added to each well and incubated for 4 hours. The medium was aspirated and 200 μL of dimethyl sulfoxide (DMSO) was added to each well to solubilize the formazan crystals. The absorbance was measured at 570 nm with 690 nm as an internal reference using a GloMax-Multi Detection System (Promega). Experiments were performed three times independently with biological replicates. A four-parameter model was used to fit the experimental data and extract the IC50 value from killing assays, where log [ ] was the log value of the stapled peptide concentration. [formula] During fitting, “top” was always fixed at 100% viability, while “bottom,” log [IC50] and Hill slope were allowed to vary. In all cases, “bottom” came out to be 0. The R^2 values of all fits were above 0.9, while the majority was above 0.95.

Bcl-2 = target: T2, Bcl-2 (Homo sapiens, UniProt P10415); experiment: Apparent Kd by E. coli surface display and flow cytometry, Bcl-2; type: binding; details: compared with wild-type peptide
T2 construct: made in house; host or cells: E. coli BL21
Method: as §1, §2

Bcl-w = target: T3, Bcl-w (Homo sapiens, UniProt Q92843); experiment: Apparent Kd by E. coli surface display and flow cytometry, Bcl-w; type: binding; details: compared with wild-type peptide
T3 construct: made in house; host or cells: E. coli BL21
T3 sequence (Q92843 1-193): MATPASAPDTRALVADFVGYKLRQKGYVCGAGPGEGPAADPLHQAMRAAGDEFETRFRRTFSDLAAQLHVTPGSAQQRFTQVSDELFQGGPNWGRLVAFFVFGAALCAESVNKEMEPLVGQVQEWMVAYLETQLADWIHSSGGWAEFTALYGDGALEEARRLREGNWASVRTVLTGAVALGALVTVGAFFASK
Method: as §1, §2

Mcl-1 = target: T4, Mcl-1 (Homo sapiens, UniProt Q07820); experiment: Apparent Kd by E. coli surface display and flow cytometry, Mcl-1; type: binding
T4 construct: made in house; host or cells: E. coli BL21
Method: as §1, §2

HeLa cells [2] = type: cell-based, human
Method: as §3

MCF7 cells = experiment: MTT cytotoxicity assay of stapled peptides, MCF7; type: cell-based, human; details: for cytotoxicity toward MCF7 cells (in words): stapled peptides, at the concentrations tested
Method: as §3

MDA231 cells = type: cell-based, human
Method: as §3

PC3 cells = type: cell-based, human
Method: as §3

HeLa cells [3] = experiment: Peptide uptake by fluorescence microscopy; type: cell-based, human; details: 5 μM, imaged after 2.5 hours
Method: (§4) To study the uptake of fluorescein-labeled M2-4 stapled peptide (Fl-M2-4), HeLa cells were cultured in DMEM with 10% FBS and antibiotics as described above. The peptide was added to a final concentration of 5 μM in fresh DMEM without serum supplementation. Cellular uptake of FI-M2-4 was visualized using a Hamamatsu Orca CCD camera attached to a Nikon Eclipse Ti microscope after 2.5 hours of incubation. Cells were fixed using 4% paraformaldehyde and counterstained with Hoechst 33342. For the TUNEL assay, HeLa cells were plated on a fibronectin-treated coverslip and incubated with 5 μM unlabeled M2-4 peptide for 5 hours. The cells were then fixed using 4% paraformaldehyde and permeabilized with 0.25% Triton X-100 in PBS. The TUNEL assay (Click-it Alexa-Fluor 594, Invitrogen) was carried out according to the manufacturer's recommendations including counterstaining cell nuclei with Hoechst 33342. Images were acquired using a Hamamatsu Orca CCD camera attached to a Nikon Eclipse Ti microscope. All images were processed with ImageJ software.

HeLa cells [4] = experiment: TUNEL assay; type: cell-based, human; details: 5 μM, 5 hours
Method: as §4

HeLa = details: cisplatin, values from reference 33-36; cited from earlier work
PC3 = details: cisplatin, values from reference 33-36; cited from earlier work
MDA231 = details: cisplatin, values from reference 33-36; cited from earlier work
MCF7 = details: cisplatin, values from reference 33-36; cited from earlier work
[5] = Table 2, apparent Kd, unstapled 14-mer displayed on E. coli (eCPX), read-out: Kd vs. Mcl-1
[6] = Table 3, apparent Kd, unstapled 14-mer displayed on E. coli (eCPX), read-out: Kd (nM) Mcl-1

T1 sequence (Q07817 whole entry): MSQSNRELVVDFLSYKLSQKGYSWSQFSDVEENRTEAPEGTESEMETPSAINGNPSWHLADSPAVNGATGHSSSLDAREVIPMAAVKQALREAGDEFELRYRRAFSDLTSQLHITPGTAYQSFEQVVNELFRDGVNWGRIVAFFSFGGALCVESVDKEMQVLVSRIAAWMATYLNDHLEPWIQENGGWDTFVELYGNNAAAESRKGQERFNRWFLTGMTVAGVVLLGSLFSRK
T4 sequence (Q07820 whole entry): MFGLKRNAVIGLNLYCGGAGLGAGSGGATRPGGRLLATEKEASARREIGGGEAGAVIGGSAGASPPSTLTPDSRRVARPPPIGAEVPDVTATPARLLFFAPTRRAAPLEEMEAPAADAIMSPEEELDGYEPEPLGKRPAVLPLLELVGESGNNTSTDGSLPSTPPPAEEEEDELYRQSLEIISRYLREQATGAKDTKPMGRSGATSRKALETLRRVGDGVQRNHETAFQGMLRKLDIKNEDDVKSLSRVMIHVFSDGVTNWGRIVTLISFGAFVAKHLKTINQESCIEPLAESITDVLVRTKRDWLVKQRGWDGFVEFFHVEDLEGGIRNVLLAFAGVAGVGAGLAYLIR
T2 sequence (P10415 whole entry): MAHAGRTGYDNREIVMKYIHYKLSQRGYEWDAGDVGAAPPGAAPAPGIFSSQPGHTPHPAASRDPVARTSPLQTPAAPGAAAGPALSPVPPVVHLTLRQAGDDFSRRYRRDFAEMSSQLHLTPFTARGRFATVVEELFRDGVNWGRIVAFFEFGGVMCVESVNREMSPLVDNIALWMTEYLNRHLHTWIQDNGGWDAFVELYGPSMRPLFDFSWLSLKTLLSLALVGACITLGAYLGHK

Molecule: stapled M2-4: stapled version of M2-4; positions 8 and 12 replaced by olefinic amino acids and crosslinked (WLAQLLR[S5]IGD[S5]IN-NH2; staple 8-12)
cellular uptake (in words) (HeLa cells [3]): taken up | apoptosis / DNA fragmentation by TUNEL (in words) (HeLa cells [4]): DNA fragmentation | apoptosis / DNA fragmentation by TUNEL (in words) (HeLa cells [4]; listed as M2-4 stapled peptide): causes apoptosis

Molecule: N.N.[Cl][Pt][Cl] [Cisplatin, cisplatin]
IC50 (HeLa): 1.34 µM | IC50 (PC3): 5.6 µM | IC50 (MDA231): ~10 µM | IC50 (MCF7): 5 µM

Molecule: WIAQELRRIGDEFN [WT, reference compound]
Kd (A1): 26.9 nM

Molecule: CC(C)C[C@H](NC(=O)[C@H](CCC(N)=O)NC(=O)[C@H](C)NC(=O)[C@H](CC(C)C)NC(=O)[C@@H](N)Cc1c[nH]c2ccccc12)C(=O)N[C@@H](CC(C)C)C(=O)N[C@@H](CCCNC(=N)N)C(=O)N[C@@]1(C)CCCC=CCCC[C@@](C)(C(=O)N[C@@H](Cc2ccccc2)C(=O)N[C@@H](CC(N)=O)C(N)=O)NC(=O)[C@H](CC(=O)O)NC(=O)CNC(=O)[C@H](Cc2ccc(O)cc2)NC1=O [X2-8, Trp-Leu-Ala-Gln-Leu-Leu-Arg-Arg-Tyr-Gly-Asp-Glu-Phe-Asn]
Kd (A1): 40.5 nM | cytotoxicity toward MCF7 cells (in words) (MCF7 cells): no cytotoxicity | IC50 (MDA231 cells): 18.3 µM | IC50 (PC3 cells): 14.9 µM | IC50 (HeLa cells [2]): 55 µM

Molecule: CC[C@H](C)[C@H](NC(=O)[C@@H](N)Cc1c[nH]c2ccccc12)C(=O)N[C@@H](C)C(=O)N[C@@H](CCC(N)=O)C(=O)N[C@@H](CCC(N)=O)C(=O)N[C@@H](CC(C)C)C(=O)N[C@@H](CCCNC(=N)N)C(=O)N[C@@]1(C)CCCC=CCCC[C@@](C)(C(=O)N[C@@H](Cc2ccccc2)C(=O)N[C@@H](CC(N)=O)C(N)=O)NC(=O)[C@H](CC(=O)O)NC(=O)CNC(=O)[C@H]([C@@H](C)CC)NC1=O (single isomer, unassigned) [stapled E151Q]
IC50 [1]: 10 to 150 µM | cytotoxicity against the four cancer cell lines (in words) [1]: only modest cytotoxicity; also recorded: measurable but modest cytotoxicity | cytotoxicity against the four cancer cell lines (in words) ([1]; listed as pseudo-wild-type Bim peptide): only modest cytotoxicity

More lines, main results first:

binding to Bcl-xL (in words) (Bcl-xL): maintaining wild-type affinity | binding to Bcl-2 (in words) (Bcl-2): maintaining wild-type affinity | binding to Bcl-w (in words) (Bcl-w): maintaining wild-type affinity | Kd (Mcl-1; [5]): 9.85 nM | Kd (Mcl-1; [6]): 9.85 nM | decrease in IC50 relative to the pseudo-wild-type peptide (HeLa cells [2]; HeLa cells, stapled peptides): ~150 fold
Molecule: CC[C@H](C)[C@@H]1NC(=O)[C@@](C)(NC(=O)[C@H](CCCNC(=N)N)NC(=O)[C@H](CC(C)C)NC(=O)[C@H](CC(C)C)NC(=O)[C@H](CCC(N)=O)NC(=O)[C@H](C)NC(=O)[C@H](CC(C)C)NC(=O)[C@@H](N)Cc2c[nH]c3ccccc23)CCCC=CCCC[C@@](C)(C(=O)N[C@H](C(=O)N[C@@H](CC(N)=O)C(N)=O)[C@@H](C)CC)NC(=O)[C@H](CC(=O)O)NC(=O)CNC1=O [M2-4, Trp-Leu-Ala-Gln-Leu-Leu-Arg-Arg-Ile-Gly-Asp-Glu-Ile-Asn]
Kd (A1): 4.18 nM | affinity improvement toward A1 (A1): 6 fold | IC50 [1]: < 6.2 µM

binding to Bcl-xL (in words) (Bcl-xL): lost the ability to bind | binding to Bcl-2 (in words) (Bcl-2): lost the ability to bind | binding to Bcl-w (in words) (Bcl-w): lost the ability to bind | Kd (Mcl-1; [5]): 5.8 nM | Kd (Mcl-1; [6]): 5.8 nM | Kd (Mcl-1; displayed unstapled 14-mer, read-out: apparent Kd against Mcl-1): 5.8 nM | increase in apparent affinity toward Mcl-1 (Mcl-1; relative to wild-type Bim 14-mer): 6 fold | IC50 (MDA231 cells): 3.7 µM | IC50 (PC3 cells): 4.7 µM | IC50 (HeLa cells [2]): 6.1 µM
Molecule: CC[C@H](C)[C@@H]1NC(=O)[C@@](C)(NC(=O)[C@H](CCCNC(=N)N)NC(=O)[C@H](CC(C)C)NC(=O)[C@H](CC(C)C)NC(=O)[C@H](CCC(N)=O)NC(=O)[C@H](C)NC(=O)[C@@H](NC(=O)[C@@H](N)Cc2c[nH]c3ccccc23)C(C)C)CCCC=CCCC[C@@](C)(C(=O)N[C@H](C(=O)N[C@@H](CC(N)=O)C(N)=O)C(C)C)NC(=O)[C@H](CC(=O)O)NC(=O)CNC1=O [M2-2, Trp-Val-Ala-Gln-Leu-Leu-Arg-Arg-Ile-Gly-Asp-Glu-Val-Asn]
Kd (A1): 9.99 nM | affinity improvement toward A1 (A1): 3 fold | IC50 (MCF7 cells): 5.7 µM | IC50 [1]: < 6.2 µM

increase in apparent affinity toward Bcl-xL (Bcl-xL): 25 fold | IC50 (MDA231 cells): 10.5 µM | IC50 (PC3 cells): 17.9 µM | IC50 (HeLa cells [2]): 51.3 µM
Molecule: CC(C)C[C@H](NC(=O)[C@H](Cc1c[nH]c2ccccc12)NC(=O)[C@H](CCC(N)=O)NC(=O)[C@H](C)NC(=O)[C@@H](NC(=O)[C@@H](N)Cc1c[nH]c2ccccc12)C(C)C)C(=O)N[C@@H](CCCNC(=N)N)C(=O)N[C@@]1(C)CCCC=CCCC[C@@](C)(C(=O)N[C@@H](Cc2ccccc2)C(=O)N[C@@H](CC(N)=O)C(N)=O)NC(=O)[C@H](CC(=O)O)NC(=O)CNC(=O)[C@H](Cc2c[nH]c3ccccc23)NC1=O [X2-3, Trp-Val-Ala-Gln-Trp-Leu-Arg-Arg-Trp-Gly-Asp-Glu-Phe-Asn]
Kd (A1): 30.2 nM | cytotoxicity toward MCF7 cells (in words) (MCF7 cells): no cytotoxicity

increase in apparent affinity toward Bcl-xL (Bcl-xL): 5 fold | IC50 (MDA231 cells): 20 µM | IC50 (PC3 cells): 9.5 µM | IC50 (HeLa cells [2]): 150 µM
Molecule: CC[C@H](C)[C@H](NC(=O)[C@@H](N)Cc1c[nH]c2ccccc12)C(=O)N[C@@H](C)C(=O)N[C@@H](CCC(N)=O)C(=O)N[C@@H](CCC(N)=O)C(=O)N[C@@H](CC(C)C)C(=O)N[C@@H](CCCNC(=N)N)C(=O)N[C@@]1(C)CCCC=CCCC[C@@](C)(C(=O)N[C@@H](Cc2ccccc2)C(=O)N[C@@H](CC(N)=O)C(N)=O)NC(=O)[C@H](CC(=O)O)NC(=O)CNC(=O)[C@H]([C@@H](C)CC)NC1=O (single isomer, unassigned) [E151Q]
Kd (A1): 29.6 nM | IC50 (MCF7 cells): 35.7 µM

Source: patent US10344064B2, “Engineered potent cytotoxic stapled BH3 peptides” (The Trustees of Princeton University, priority 2012, dated 2019)
